Species: Rattus norvegicus
Assay: DrugMatrix - Regimen: Daily Repeat
Format: toxicity, organism-based, Sprague-Dawley
Set-up: regimen Daily Repeat, gender Male, age 6-8 weeks
Conditions: in vivo, po, route oral GAVAGE, vehicle 100 % SALINE; for ABSOLUTE BASOPHIL / ABSOLUTE EOSINOPHIL / ABSOLUTE LYMPHOCYTE / ABSOLUTE MONOCYTE / ABSOLUTE SEGMENTED NEUTROPHIL / BASOPHIL / EOSINOPHIL / ERYTHROCYTE COUNT / HEMATOCRIT / HEMOGLOBIN / LEUKOCYTE COUNT / LYMPHOCYTE / MEAN CORPUSCULAR HEMOGLOBIN / MEAN CORPUSCULAR HEMOGLOBIN CONCENTRATION / MEAN CORPUSCULAR VOLUME / MONOCYTE / NEUTROPHIL / NUCLEATED RED BLOOD CELLS / PLATELET COUNT: tissue Blood; for ALANINE AMINOTRANSFERASE / ALBUMIN / ALKALINE PHOSPHATASE / ASPARTATE AMINOTRANSFERASE / BLOOD UREA NITROGEN / CARBON DIOXIDE / CHLORIDE / CHOLESTEROL / CREATINE PHOSPHOKINASE / CREATININE / GLUCOSE / LACTATE DEHYDROGENASE / LIPASE / PHOSPHORUS / POTASSIUM / SODIUM / TOTAL BILIRUBIN / TOTAL PROTEIN / URIC ACID: tissue Plasma
[1] = 0 mg/kg, 72 h, dose level Control, time 3 day
[2] = 0 mg/kg, 120 h, dose level Control, time 5 day
[3] = 46 mg/kg, 72 h, dose level Low, time 3 day

`COc1ccc2cc(CC(=O)O)ccc2c1` was tested, and the “ABSOLUTE BASOPHIL” value [1] was 0 CELLS/uL, the “ABSOLUTE EOSINOPHIL” value [1] was 26.83 CELLS/uL and the “ABSOLUTE LYMPHOCYTE” value [1] was 12748.5 CELLS/uL. For the same compound, the “ABSOLUTE MONOCYTE” value [1] was 140.5 CELLS/uL, the “ABSOLUTE SEGMENTED NEUTROPHIL” value [1] was 1067.5 CELLS/uL and the BASOPHIL [1] was 0%. The EOSINOPHIL [1] was 0.17%, the “ERYTHROCYTE COUNT” value [1] was 5.51 x10E6/uL and the HEMATOCRIT [1] was 34.75%. The HEMOGLOBIN [1] was 13.65 G/DL, the “LEUKOCYTE COUNT” value [1] was 13.98 x10E3/uL and the LYMPHOCYTE [1] was 91.17%. For the same compound, the “MEAN CORPUSCULAR HEMOGLOBIN” value [1] was 24.8 pg, the “MEAN CORPUSCULAR HEMOGLOBIN CONCENTRATION” value [1] was 39.33 G/DL and the “MEAN CORPUSCULAR VOLUME” value [1] was 63.03 fL. The MONOCYTE [1] was 1%, the NEUTROPHIL [1] was 7.67% and the “NUCLEATED RED BLOOD CELLS” value [1] was 0 /100WBC. The “PLATELET COUNT” value [1] was 1278.17 x10E3/uL, the “ALANINE AMINOTRANSFERASE” value [1] was 52.17 u/L and the ALBUMIN [1] was 4.07 G/DL. For the same compound, the “ALKALINE PHOSPHATASE” value [1] was 416.83 u/L, the “ASPARTATE AMINOTRANSFERASE” value [1] was 109.67 u/L and the “BLOOD UREA NITROGEN” value [1] was 16.83 mg/dL. The “CARBON DIOXIDE” value [1] was 28 mmol/L, the CHLORIDE [1] was 100.83 MEQ/L and the CHOLESTEROL [1] was 69 mg/dL. For the same compound, the “CREATINE PHOSPHOKINASE” value [1] was 1155.67 u/L, the CREATININE [1] was 0.32 mg/dL and the GLUCOSE [1] was 186.5 mg/dL. For the same compound, the “LACTATE DEHYDROGENASE” value [1] was 345.67 u/L, the LIPASE [1] was 12.17 u/L and the PHOSPHORUS [1] was 12.45 mg/dL. For the same compound, the POTASSIUM [1] was 6.85 MEQ/L, the SODIUM [1] was 141.4 MEQ/L and the “TOTAL BILIRUBIN” value [1] was 0.23 mg/dL. For the same compound, the “TOTAL PROTEIN” value [1] was 5.63 G/DL, the “URIC ACID” value [1] was 2.22 mg/dL and the “ABSOLUTE BASOPHIL” value [2] was 0 CELLS/uL. The “ABSOLUTE EOSINOPHIL” value [2] was 114.33 CELLS/uL, the “ABSOLUTE LYMPHOCYTE” value [2] was 11655.33 CELLS/uL and the “ABSOLUTE MONOCYTE” value [2] was 142 CELLS/uL. For the same compound, the “ABSOLUTE SEGMENTED NEUTROPHIL” value [2] was 1055 CELLS/uL, the BASOPHIL [2] was 0% and the EOSINOPHIL [2] was 0.83%. For the same compound, the “ERYTHROCYTE COUNT” value [2] was 5.68 x10E6/uL, the HEMATOCRIT [2] was 35.92% and the HEMOGLOBIN [2] was 14.13 G/DL. The “LEUKOCYTE COUNT” value [2] was 12.97 x10E3/uL, the LYMPHOCYTE [2] was 90% and the “MEAN CORPUSCULAR HEMOGLOBIN” value [2] was 24.93 pg. For the same compound, the “MEAN CORPUSCULAR HEMOGLOBIN CONCENTRATION” value [2] was 39.37 G/DL, the “MEAN CORPUSCULAR VOLUME” value [2] was 63.33 fL and the MONOCYTE [2] was 1.17%. The NEUTROPHIL [2] was 8%, the “NUCLEATED RED BLOOD CELLS” value [2] was 0 /100WBC and the “PLATELET COUNT” value [2] was 1234 x10E3/uL. For the same compound, the “ALANINE AMINOTRANSFERASE” value [2] was 43.5 u/L, the ALBUMIN [2] was 4.23 G/DL and the “ALKALINE PHOSPHATASE” value [2] was 331.5 u/L. The “ASPARTATE AMINOTRANSFERASE” value [2] was 80.83 u/L, the “BLOOD UREA NITROGEN” value [2] was 17.67 mg/dL and the “CARBON DIOXIDE” value [2] was 31.83 mmol/L. For the same compound, the CHLORIDE [2] was 100.83 MEQ/L, the CHOLESTEROL [2] was 69.5 mg/dL and the “CREATINE PHOSPHOKINASE” value [2] was 320 u/L. The CREATININE [2] was 0.26 mg/dL, the GLUCOSE [2] was 157.33 mg/dL and the “LACTATE DEHYDROGENASE” value [2] was 364.67 u/L. It also gave an LIPASE [2] of 9.83 u/L, a PHOSPHORUS [2] of 11.05 mg/dL and a POTASSIUM [2] of 5.83 MEQ/L. The SODIUM [2] was 141.07 MEQ/L, the “TOTAL BILIRUBIN” value [2] was 0.22 mg/dL and the “TOTAL PROTEIN” value [2] was 5.92 G/DL. For the same compound, the “URIC ACID” value [2] was 1.23 mg/dL, the “ABSOLUTE BASOPHIL” value [3] was 0 CELLS/uL and the “ABSOLUTE EOSINOPHIL” value [3] was 49.33 CELLS/uL. For the same compound, the “ABSOLUTE LYMPHOCYTE” value [3] was 12249.33 CELLS/uL, the “ABSOLUTE MONOCYTE” value [3] was 224.67 CELLS/uL and the “ABSOLUTE SEGMENTED NEUTROPHIL” value [3] was 1176.67 CELLS/uL. The BASOPHIL [3] was 0%, the EOSINOPHIL [3] was 0.33% and the “ERYTHROCYTE COUNT” value [3] was 5.54 x10E6/uL. For the same compound, the HEMATOCRIT [3] was 33.9%, the HEMOGLOBIN [3] was 13.13 G/DL and the “LEUKOCYTE COUNT” value [3] was 13.7 x10E3/uL. For the same compound, the LYMPHOCYTE [3] was 89.67%, the “MEAN CORPUSCULAR HEMOGLOBIN” value [3] was 23.73 pg and the “MEAN CORPUSCULAR HEMOGLOBIN CONCENTRATION” value [3] was 38.77 G/DL. For the same compound, the “MEAN CORPUSCULAR VOLUME” value [3] was 61.23 fL, the MONOCYTE [3] was 1.67% and the NEUTROPHIL [3] was 8.33%. For the same compound, the “NUCLEATED RED BLOOD CELLS” value [3] was 0 /100WBC, the “PLATELET COUNT” value [3] was 1182.67 x10E3/uL and the “ALANINE AMINOTRANSFERASE” value [3] was 61.33 u/L. The ALBUMIN [3] was 4.13 G/DL, the “ALKALINE PHOSPHATASE” value [3] was 328.67 u/L and the “ASPARTATE AMINOTRANSFERASE” value [3] was 85.67 u/L. For the same compound, the “BLOOD UREA NITROGEN” value [3] was 16 mg/dL, the “CARBON DIOXIDE” value [3] was 34 mmol/L and the CHLORIDE [3] was 102.33 MEQ/L. For the same compound, the CHOLESTEROL [3] was 75.67 mg/dL, the “CREATINE PHOSPHOKINASE” value [3] was 347.33 u/L and the CREATININE [3] was 0.4 mg/dL. For the same compound, the GLUCOSE [3] was 150.67 mg/dL, the “LACTATE DEHYDROGENASE” value [3] was 245.33 u/L and the LIPASE [3] was 9 u/L. For the same compound, the PHOSPHORUS [3] was 11.63 mg/dL, the POTASSIUM [3] was 6.77 MEQ/L and the SODIUM [3] was 143.43 MEQ/L. The “TOTAL BILIRUBIN” value [3] was 0.13 mg/dL, the “TOTAL PROTEIN” value [3] was 5.33 G/DL and the “URIC ACID” value [3] was 1.3 mg/dL.
